According to patent US5800838A, “Composition that inhibits or destroys at least one unicellular living organism containing fluorine F- and Lithium li+” (priority 1987, dated 1998):
≈ marks a conversion by molar mass, not a printed value. Read-outs that look alike come from different tables or passages of the source. Values belong to the molecule of their own block, whether it stands above or below them.

What was measured:
[1] = test system: Escherichia coli; assay: Antibiotic activity of ampicillin (Example 24); format: cell-based
[2] = test system: Streptococcus faecalis; assay: Antibiotic activity of ampicillin (Example 24); format: cell-based; details: Enterococcus faecalis, read-out: minimal inhibitory concentration
[3] = test system: Group C streptococcus; assay: Antibiotic activity of ampicillin (Example 24); format: cell-based; details: read-out: minimal inhibitory concentration
[4] = test system: Pseudomonas aeruginosa; assay: Antibiotic activity of ampicillin (Example 24); format: cell-based; details: read-out: minimal inhibitory concentration
[5] = test system: Haemophilus influenzae; assay: Antibiotic activity of ampicillin (Example 24); format: cell-based; details: read-out: minimal inhibitory concentration
[6] = test system: Staphylococcus aureus; assay: Antibiotic activity of ampicillin (Example 24); format: cell-based; details: read-out: minimal inhibitory concentration
[7] = test system: Entrococcus faecium; assay: Antibiotic activity of ampicillin (Example 24); format: cell-based; details: resistant to ampicillin, read-out: minimal inhibitory concentration
[8] = test system: Pseudomonas aeruginosa; assay: MIC of doxycycline (Example 32); format: cell-based; details: alone, or with FNa 8 ppm / Fli 8 ppm
Description: The MIC of doxycycline was studied on pseudomonas aeruginosa (wild-type hospital strain) in the same conditions as for example 31.

[9] = test system: Escherichia coli ATCC 25922; assay: Antibiotic activity of patient's blood after administration, inhibition holes methodology; format: in vivo
Description: The efficiency in vivo of the administration of doxycycline in presence of Fli has been measured and compared with the efficiency of the administration of doxycycline alone.
The antibiotic composition (doxycycline alone or with Fli) has been administered to a healthy patient, and the antibiotic activity of the patient's blood has been determined before the first administration, the day of the administration, and three days later. The delay of three days is necessary because of the low solubility of Fli: the pertinent concentration of Fli is only obtained after the end of the second day after its administration.
The patient had taken the antibiotic during the three days, 2 capsules of 250 mg each day at 8 a.m. A blood sample was taken 3 hours after each administration.
And the antibiotic activity was twice determined by a microbiological titration using the inhibition holes methodology on a standard strain ATCC 25922 of Escherichia coli.
Holes of […] diameter were made on a Mueller Hinton agar and 100 μl of plasma were injected in each hole. The agar was then seeded with an inoculum of Escherichia coli of […].
After an incubation of 24 hours at 37° C., the diameters around each holes (in which the strain was killed) were read.
In the first trial, the capsules of 250 mg were constituted of 110 mg of doxycycline chlorhydrate and of lactose.
The second trial was conducted similarly with gelules of 250 mg constituted of 110 mg of doxycycline, 53 mg of Fli and lactose.

[10] = test system: Group C streptococcus; assay: Activity on wild-type hospital strains responsible for skin infections; format: cell-based; details: Streptococcus
[11] = test system: Escherichia coli; assay: as above; format: cell-based; details: Escherichia coli, read-out: 100% inhibitory concentration
[12] = test system: staphylococcus aeurus; format: cell-based; details: Fli 4 ppm
Description: Strains Gram+ and Gram- (wild-type hospital) having a resistant phenotype vis a vis standard firstly and secondly used antibiotherapy were experimented on activated antibiotics.
250 experiments were conducted on the following strains: Streptococcus group B, C, D, F, G, Staphylococcus aureus, Staphylococcus epidermitis, Klebsiella pneumoniae, Klebsiella spirochete, Klebsiella oxytoca, Proteus mirabilis, Serratia marcescens, Escherichia coli, Citrobacter freundii, Enterobacter cloacae, Enterobacter calcoaceticus, Salmonella spirochete, Salmonella typhimurium, Pseudomonas aeruginosa, Haemophilus influenzae, Haemophilus sphrophilus, Acinetobacter calcoaeticus. […]

[13] = test system: spermatozoa; details: alone; cited from earlier work
[14] = LiF 0.8 mg/l, multiresistant strains often producing beta-lactamase
[15] = alone, multiresistant strains often producing beta-lactamase

MIC ([1]; ATCC25, LiF 1 mg/l, ATCC 25 922, read-out: minimal inhibitory concentration): 2 µg/mL (≈ 5.72 µM)
MIC ([1]; ATCC25, alone, ATCC 25 922, read-out: minimal inhibitory concentration): 4 µg/mL (≈ 11.4 µM)
MIC ([1]; LiF 0.8 mg/l, multiresistant strains often producing beta-lactamase, read-out: minimal inhibitory concentration): 8 µg/mL (≈ 22.9 µM)
MIC ([1]; LiF 5 mg/l, 10 wild-type strains, read-out: minimal inhibitory concentration): 1 to 4 µg/mL (≈ 2.86 to 11.4 µM)
MIC ([1]; LiF 5 mg/l, resistant Escherichia coli, read-out: minimal inhibitory concentration): 8 µg/mL (≈ 22.9 µM)
MIC ([1]; alone, 10 wild-type strains, read-out: minimal inhibitory concentration): 2 to 8 µg/mL (≈ 5.72 to 22.9 µM)
MIC ([1]; alone, multiresistant strains often producing beta-lactamase, read-out: minimal inhibitory concentration): 64 µg/mL (≈ 183 µM)
MIC ([1]; alone, resistant Escherichia coli, read-out: minimal inhibitory concentration): 64 µg/mL (≈ 183 µM)
MIC ([2]; ATCC25, LiF 5 mg/l, ATCC 25 212): 4 µg/mL (≈ 11.4 µM)
MIC ([2]; ATCC25, alone, ATCC 25 212): 8 µg/mL (≈ 22.9 µM)
MIC ([2]; LiF 5 mg/l, 10 wild-type strains): 2 µg/mL (≈ 5.72 µM)
MIC ([2]; alone, 10 wild-type strains): 4 to 8 µg/mL (≈ 11.4 to 22.9 µM)
MIC [3, 14]: 64 µg/mL (≈ 183 µM)
MIC ([3]; LiF 1 mg/l): 8 µg/mL (≈ 22.9 µM)
MIC [3, 15]: 256 µg/mL (≈ 733 µM)
MIC ([3]; alone): 32 µg/mL (≈ 91.6 µM)
MIC [4, 14]: 4 to 8 µg/mL (≈ 11.4 to 22.9 µM)
MIC ([4]; LiF 5 mg/l): 4 to 8 µg/mL (≈ 11.4 to 22.9 µM)
MIC [4, 15]: 16 to 32 µg/mL (≈ 45.8 to 91.6 µM)
MIC ([4]; alone): 16 to 32 µg/mL (≈ 45.8 to 91.6 µM)
MIC [5, 14]: 32 µg/mL (≈ 91.6 µM)
MIC ([5]; LiF 5 mg/l, resistant to ampicillin, 5 wild-type strains): 32 µg/mL (≈ 91.6 µM)
MIC [5, 15]: > 128 µg/mL
MIC ([5]; alone, resistant to ampicillin, 5 wild-type strains): > 128 µg/mL
MIC [6, 14]: 32 µg/mL (≈ 91.6 µM)
MIC ([6]; LiF 1 mg/l, resistant to ampicillin, 10 strains): 64 µg/mL (≈ 183 µM)
MIC ([6]; LiF 6 mg/l, resistant to ampicillin, strains producing beta-lactamase): 64 µg/mL (≈ 183 µM)
MIC [6, 15]: > 128 µg/mL
MIC ([6]; alone, resistant to ampicillin, 10 strains): > 128 µg/mL
MIC ([6]; alone, resistant to ampicillin, strains producing beta-lactamase): > 128 µg/mL
MIC ([7]; LiF 5 mg/l): 64 µg/mL (≈ 183 µM)
MIC ([7]; alone): > 128 µg/mL
Structure (SMILES): CC1(C)S[C@@H]2[C@H](NC(=O)[C@H](N)c3ccccc3)C(=O)N2[C@H]1C(=O)O [AMPICILLIN, ampicillin]

MIC [8]: 1000 µg/mL
Structure (SMILES): C[C@H]1c2cccc(O)c2C(=O)C2=C(O)[C@]3(O)C(=O)C(C(N)=O)=C(O)[C@@H](N(C)C)[C@@H]3[C@@H](O)[C@@H]21 [DOXYCYCLINE, doxycycline]
inhibition diameter ([9]; J0, day before the first administration, healthy patient, plasma): 7 mm
inhibition diameter ([9]; J1, day of the first administration, 2 capsules each day, blood 3 hours after administration): 8-9 mm
inhibition diameter ([9]; J3, third day of administration, 2 capsules each day, blood 3 hours after administration): 11-12 mm

Structure (SMILES): CC[C@H]1OC(=O)[C@H](C)[C@@H](O[C@H]2C[C@@](C)(OC)[C@@H](O)[C@H](C)O2)[C@H](C)[C@@H](O[C@@H]2O[C@H](C)C[C@H](N(C)C)[C@H]2O)[C@](C)(O)C[C@@H](C)C(=O)[C@H](C)[C@@H](O)[C@]1(C)O [ERYTHROMYCIN, erythromycin]
MIC ([10]; read-out: 100% inhibitory concentration, alone): > 0.25 µg/mL
MIC ([10]; read-out: 100% inhibitory concentration, in the presence of LiF 4 ppm): 0.125 µg/mL
MIC ([11]; alone): > 64 µg/mL
MIC ([11]; in the presence of LiF 8 ppm): 32 µg/mL
phenotype in presence of Fli [12]: the resistant phenotype was not changed

Structure (SMILES): F [F^- ions]
MIC (minimal inhibitory concentration) [13]: 5 ppm
MIC, equivalent in % [13]: 0.0005%
